Experimental data from US12371428B2 (Exelixis, Inc., priority 2019, dated 2025).
Counter-ions that a name gives are not always drawn. Like-named read-outs stand apart in the source and are kept apart here.

Tests used:
[1] = biological target: Human KDR (residues 790-1356) (Homo sapiens (Human), UniProt P35968); assay: Human KDR kinase assay, HTRF KinEase (Example B-2); format: biochemical
In short: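 Human KDR residues 790-1356 (0.1 ng/well) in buffer with 5 mM MgCl2, 1 mM MnCl2, 1 mM DTT, biotinylated peptide substrate, ATP at Km (4.0 μM), 3% DMSO, 10 compound concentrations; 40 min, room temperature. EDTA stop, streptavidin-XL665/Eu-TK antibody HTRF read 665/620 nm; 4-parameter IC50.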

[2] = biological target: Human MER (residues 528-999) (Homo sapiens (Human), UniProt Q12866); assay: Human Mer kinase assay, HTRF KinEase (Example C-2); format: biochemical
In short: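 Recombinant MER 528-999 (1 ng/well) in buffer with 5 mM MgCl2 and 1 mM DTT was reacted with biotinylated peptide and ATP at Km (40 μM) for 60 min at room temperature. EDTA stop with SA-XL665 and Eu3+ TK antibody, then 665/620 nm HTRF read; IC50 from 4-parameter fit.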

[3] = biological target: Human MET (residues 956-1390) (Homo sapiens (Human), UniProt P08581); assay: Human Met kinase assay, HTRF KinEase (Example D-2); format: biochemical; settings: read-out: c-Met IC50
In short: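 MET kinase domain (956-1390), 0.1 ng/well, in buffer with 5 mM MgCl2, 1 mM DTT and 1 mM MnCl2, phosphorylated a biotinylated peptide at ATP Km for 40 min at RT; 10 concentrations, 3% DMSO final. EDTA-stopped HTRF read after 60 min; IC50 from a 4-parameter logistic fit.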

[4] = biological target: Mer (phospho-Mer, MERTK-transfected 293A cells) (Homo sapiens (Human), UniProt Q12866); assay: Mer autophosphorylation ELISA in transient transfected 293A cells (Example H); format: cell-based; settings: cellular activity; Mer autophosphorylation ELISA in transient transfected 293A cells
In short: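 293A cells transiently transfected with human MERTK were treated 1 h in serum-free medium with an 8-point compound dilution (0.3% DMSO final). Lysates were assayed by phospho-Mer sandwich ELISA against a phospho-Mer standard; IC50 came from a 4-parameter logistic fit, normalised to DMSO (100%) and reference-inhibitor (0%) controls.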

[5] = protocol of Example B-2 (other compounds)
[6] = protocol of Example C-2 (other compounds)
[7] = protocol of Example D-2 (other compounds)

Human MER (residues 528-999), sequence (Q12866 528-999): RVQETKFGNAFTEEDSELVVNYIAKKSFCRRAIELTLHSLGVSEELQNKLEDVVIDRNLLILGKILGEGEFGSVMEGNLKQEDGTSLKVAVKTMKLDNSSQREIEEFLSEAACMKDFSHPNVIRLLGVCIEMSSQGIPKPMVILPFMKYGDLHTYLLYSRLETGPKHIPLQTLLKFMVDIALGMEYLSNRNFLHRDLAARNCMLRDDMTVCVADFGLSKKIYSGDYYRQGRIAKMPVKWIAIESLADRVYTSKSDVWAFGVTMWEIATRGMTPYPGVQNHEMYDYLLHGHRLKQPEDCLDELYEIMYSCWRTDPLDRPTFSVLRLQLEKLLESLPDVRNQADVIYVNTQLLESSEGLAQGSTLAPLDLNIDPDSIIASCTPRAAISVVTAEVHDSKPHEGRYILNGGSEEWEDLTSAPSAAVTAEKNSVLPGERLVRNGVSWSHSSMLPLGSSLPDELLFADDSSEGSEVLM
Mer (phospho-Mer, MERTK-transfected 293A cells), sequence (Q12866 21-999): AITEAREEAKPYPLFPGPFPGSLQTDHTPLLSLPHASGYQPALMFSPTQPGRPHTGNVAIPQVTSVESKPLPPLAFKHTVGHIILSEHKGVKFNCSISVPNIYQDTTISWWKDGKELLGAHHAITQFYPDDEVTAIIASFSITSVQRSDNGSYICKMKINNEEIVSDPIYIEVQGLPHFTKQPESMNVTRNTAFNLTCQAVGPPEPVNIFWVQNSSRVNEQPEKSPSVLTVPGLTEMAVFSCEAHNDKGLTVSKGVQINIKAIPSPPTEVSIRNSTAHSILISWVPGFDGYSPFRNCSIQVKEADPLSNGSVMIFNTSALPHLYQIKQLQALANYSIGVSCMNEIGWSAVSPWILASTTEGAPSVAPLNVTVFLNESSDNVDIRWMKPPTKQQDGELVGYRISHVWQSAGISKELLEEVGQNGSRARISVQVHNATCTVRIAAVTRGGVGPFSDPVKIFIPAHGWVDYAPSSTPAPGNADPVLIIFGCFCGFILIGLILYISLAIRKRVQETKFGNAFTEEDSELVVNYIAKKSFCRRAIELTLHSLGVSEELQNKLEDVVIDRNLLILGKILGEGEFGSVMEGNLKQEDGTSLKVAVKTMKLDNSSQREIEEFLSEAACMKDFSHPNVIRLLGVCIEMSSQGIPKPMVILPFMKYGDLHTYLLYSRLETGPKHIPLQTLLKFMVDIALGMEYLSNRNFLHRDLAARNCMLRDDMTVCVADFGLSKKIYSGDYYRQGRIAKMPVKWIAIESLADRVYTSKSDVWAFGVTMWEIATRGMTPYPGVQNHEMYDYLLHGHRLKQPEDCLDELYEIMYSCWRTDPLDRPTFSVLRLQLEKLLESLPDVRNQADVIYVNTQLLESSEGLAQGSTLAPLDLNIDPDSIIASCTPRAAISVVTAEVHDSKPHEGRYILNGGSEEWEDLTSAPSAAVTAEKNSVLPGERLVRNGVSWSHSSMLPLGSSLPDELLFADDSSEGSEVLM
Human KDR (residues 790-1356), sequence (P35968 790-1356): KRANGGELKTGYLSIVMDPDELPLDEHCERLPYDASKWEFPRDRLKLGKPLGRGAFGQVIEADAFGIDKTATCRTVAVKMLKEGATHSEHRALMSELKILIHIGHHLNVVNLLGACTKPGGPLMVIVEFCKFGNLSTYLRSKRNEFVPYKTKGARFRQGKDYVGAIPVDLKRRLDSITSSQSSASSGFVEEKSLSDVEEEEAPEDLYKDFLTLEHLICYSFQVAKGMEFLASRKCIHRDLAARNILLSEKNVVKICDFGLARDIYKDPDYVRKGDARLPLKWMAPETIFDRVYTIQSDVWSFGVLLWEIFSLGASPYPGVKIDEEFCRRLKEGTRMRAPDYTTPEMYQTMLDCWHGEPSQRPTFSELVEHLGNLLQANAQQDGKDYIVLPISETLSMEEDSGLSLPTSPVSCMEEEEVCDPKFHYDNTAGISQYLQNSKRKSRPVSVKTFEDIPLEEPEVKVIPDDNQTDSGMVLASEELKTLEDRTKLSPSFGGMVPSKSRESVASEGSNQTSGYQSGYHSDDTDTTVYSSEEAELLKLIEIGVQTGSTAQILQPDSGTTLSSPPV
Human MET (residues 956-1390), sequence (P08581 956-1390): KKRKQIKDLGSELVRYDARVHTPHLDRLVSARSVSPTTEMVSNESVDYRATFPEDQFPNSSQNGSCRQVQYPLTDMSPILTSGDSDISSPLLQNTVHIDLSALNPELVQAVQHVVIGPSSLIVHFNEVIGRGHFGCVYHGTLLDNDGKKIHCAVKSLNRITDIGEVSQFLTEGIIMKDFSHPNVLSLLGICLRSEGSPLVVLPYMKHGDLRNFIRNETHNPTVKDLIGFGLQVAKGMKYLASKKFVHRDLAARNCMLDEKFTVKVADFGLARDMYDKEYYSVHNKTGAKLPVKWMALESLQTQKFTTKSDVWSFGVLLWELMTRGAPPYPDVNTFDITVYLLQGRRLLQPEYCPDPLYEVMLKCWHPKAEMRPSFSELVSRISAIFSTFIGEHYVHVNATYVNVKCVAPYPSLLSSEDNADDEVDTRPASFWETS

Compound | IC50 ([1]; protocol of Example B-2) [nM] | IC50 ([2]; protocol of Example C-2) [nM] | IC50 ([3]; protocol of Example D-2) [nM] | IC50 [4] [nM] | IC50 [1, 5] [nM] | IC50 [2, 6] [nM] | IC50 [3, 7] [nM]
Cc1ncc(C(=O)Nc2ccc(Oc3ccnc4cc(C(C)C)cnc34)c(F)c2)c(O)c1-c1ccc(F)cc1 [Compound 596, 5-(4-Fluorophenyl)-N-[3-fluoro-4-[(7-propan-2-yl-1,5-naphthyridin-4-yl)oxy]phenyl]-4-hydroxy-6-methylpyridine-3-carboxamide] | > 300 | < 100 | < 100 | < 100 |  |  | 
CNc1c(-c2ccc(F)cc2)c(=O)c(C(=O)Nc2ccc(Oc3ccnc4cc(OC)cnc34)c(F)c2)cn1C [Compound 585, N-[3-Fluoro-4-[(7-methoxy-1,5-naphthyridin-4-yl)oxy]phenyl]-5-(4-fluorophenyl)-1-methyl-6-(methylamino)-4-oxopyridine-3-carboxamide] | > 300 | < 100 | < 100 | < 100 |  |  | 
COc1cc2c(Oc3ccc(NC(=O)c4cn(C5CC5)c(C)c(-c5ccc(F)cc5)c4=O)cc3F)ccnc2cn1 [Compound 640, 1-cyclopropyl-N-[3-fluoro-4-[(6-methoxy-1,7-naphthyridin-4-yl)oxy]phenyl]-5-(4-fluorophenyl)-6-methyl-4-oxopyridine-3-carboxamide] | > 300 | < 100 | < 100 | < 100 |  |  | 
COc1cnc2c(Oc3ccc(NC(=O)c4cn(C)c(C#N)c(-c5ccc(F)cc5)c4=O)cc3F)ccnc2c1 [Compound 586, 6-Cyano-N-[3-fluoro-4-[(7-methoxy-1,5-naphthyridin-4-yl)oxy]phenyl]-5-(4-fluorophenyl)-1-methyl-4-oxopyridine-3-carboxamide] | > 300 | < 100 | < 100 | < 100 |  |  | 
COc1cc2nccc(Oc3ccc(NC(=O)c4cn(CCN5CCOCC5)cc(-c5ccc(F)cc5)c4=O)cc3F)c2nc1OC [Compound 157, N-[4-[(6,7-Dimethoxy-1,5-naphthyridin-4-yl)oxy]-3-fluorophenyl]-5-(4-fluorophenyl)-1-(2-morpholin-4-ylethyl)-4-oxopyridine-3-carboxamide] |  |  |  | < 100 | > 300 | < 100 | < 100
Cc1ncc(C(=O)Nc2ccc(Oc3ccnc4cnccc34)c(F)c2)c(O)c1-c1ccc(F)cc1 [Compound 642, N-[3-fluoro-4-(1,7-naphthyridin-4-yloxy)phenyl]-5-(4-fluorophenyl)-4-hydroxy-6-methylpyridine-3-carboxamide] | < 100 | < 100 | < 100 | < 100 |  |  | 
Cc1cc2c(Oc3ccc(NC(=O)c4cnc(C)c(-c5ccc(F)cc5)c4O)cc3F)ccnc2cn1 [Compound 645, N-[3-fluoro-4-[(6-methyl-1,7-naphthyridin-4-yl)oxy]phenyl]-5-(4-fluorophenyl)-4-hydroxy-6-methylpyridine-3-carboxamide] | < 100 | < 100 | < 100 | < 100 |  |  | 
COc1cnc2c(Oc3ccc(NC(=O)c4cn(C(C)C)c(C)c(-c5ccc(F)cc5)c4=O)cc3)ccnc2c1 [Compound 148, 5-(4-Fluorophenyl)-N-[4-[(7-methoxy-1,5-naphthyridin-4-yl)oxy]phenyl]-6-methyl-4-oxo-1-propan-2-ylpyridine-3-carboxamide] |  |  |  | < 100 | > 300 | < 100 | < 100
COc1nc2c(Oc3ccc(NC(=O)c4cn(C(C)C)cc(-c5ccc(F)cc5)c4=O)cc3F)ccnc2cc1Br [Compound 131, N-[4-[(7-Bromo-6-methoxy-1,5-naphthyridin-4-yl)oxy]-3-fluorophenyl]-5-(4-fluorophenyl)-4-oxo-1-propan-2-ylpyridine-3-carboxamide] |  |  |  | < 100 | > 300 | < 100 | < 100
CCn1cc(C(=O)Nc2ccc(Oc3ccnc4cc(OC)c(OC)nc34)cc2)c(=O)c(-c2ccc(F)cc2)c1 [Compound 167, N-[4-[(6,7-Dimethoxy-1,5-naphthyridin-4-yl)oxy]phenyl]-1-ethyl-5-(4-fluorophenyl)-4-oxopyridine-3-carboxamide] |  |  |  | < 100 | 100 to 300 | < 100 | < 100
Cc1nc2c(Oc3ccc(NC(=O)c4cnc(C)c(-c5ccc(F)cc5)c4O)cc3)ccnc2cc1-c1cccnc1 [Compound 616, 5-(4-Fluorophenyl)-4-hydroxy-6-methyl-N-[4-[(6-methyl-7-pyridin-3-yl-1,5-naphthyridin-4-yl)oxy]phenyl]pyridine-3-carboxamide hydrochloride] | > 300 | < 100 | < 100 | 100 to 300 |  |  | 
Cc1ncc(C(=O)Nc2ccc(Oc3ccnc4cc(-c5cnn(C(F)F)c5)cnc34)c(F)c2)c(O)c1-c1ccc(F)cc1 [Compound 610, N-[4-[[7-[1-(Difluoromethyl)pyrazol-4-yl]-1,5-naphthyridin-4-yl]oxy]-3-fluorophenyl]-5-(4-fluorophenyl)-4-hydroxy-6-methylpyridine-3-carboxamide hydrochloride] | 100 to 300 | < 100 | < 100 | < 100 |  |  | 
COc1cc2nccc(Oc3ccc(NC(=O)c4cnc(C)c(-c5ccc(F)cc5)c4O)cc3F)c2nc1NS(C)(=O)=O [Compound 584, N-[3-Fluoro-4-[[6-(methanesulfonamido)-7-methoxy-1,5-naphthyridin-4-yl]oxy]phenyl]-5-(4-fluorophenyl)-4-hydroxy-6-methylpyridine-3-carboxamide] | < 100 | < 100 | < 100 | 100 to 300 |  |  | 
COc1cc2nccc(Oc3ccc(NC(=O)c4cn(C(C)C)c(C)c(-c5ccc(F)cc5)c4=O)cc3F)c2nc1NS(C)(=O)=O [Compound 581, N-[3-Fluoro-4-[[6-(methanesulfonamido)-7-methoxy-1,5-naphthyridin-4-yl]oxy]phenyl]-5-(4-fluorophenyl)-6-methyl-4-oxo-1-propan-2-ylpyridine-3-carboxamide] | < 100 | < 100 | < 100 | < 100 |  |  | 
COc1cc2c(Oc3ccc(NC(=O)c4cnc(C)c(-c5ccc(F)cc5)c4O)cc3)ccnc2cn1 [Compound 644, 5-(4-fluorophenyl)-4-hydroxy-N-[4-[(6-methoxy-1,7-naphthyridin-4-yl)oxy]phenyl]-6-methylpyridine-3-carboxamide] | 100 to 300 | < 100 | < 100 | < 100 |  |  | 
COc1cnc2c(Oc3ccc(NC(=O)c4cn(C)c(OC)c(-c5ccc(F)cc5)c4=O)cc3F)ccnc2c1 [Compound 587, N-[3-Fluoro-4-[(7-methoxy-1,5-naphthyridin-4-yl)oxy]phenyl]-5-(4-fluorophenyl)-6-methoxy-1-methyl-4-oxopyridine-3-carboxamide] | > 300 | < 100 | < 100 | < 100 |  |  | 
Cc1ncc(C(=O)Nc2ccc(Oc3ccnc4cc(C(F)(F)F)cnc34)c(F)c2)c(O)c1-c1ccc(F)cc1 [Compound 151, 5-(4-Fluorophenyl)-N-[3-fluoro-4-[[7-(trifluoromethyl)-1,5-naphthyridin-4-yl]oxy]phenyl]-4-hydroxy-6-methylpyridine-3-carboxamide] |  |  |  | < 100 | > 300 | < 100 | < 100
COc1cc2nccc(Oc3ccc(NC(=O)c4cnc(C)c(-c5ccc(F)cc5)c4O)cc3)c2cc1OC [Compound 171, N-[4-(6,7-Dimethoxyquinolin-4-yl)oxyphenyl]-5-(4-fluorophenyl)-4-hydroxy-6-methylpyridine-3-carboxamide] |  |  |  | < 100 | < 100 | < 100 | < 100
Cc1nc2c(Oc3ccc(NC(=O)c4cn(C(C)C)c(C)c(-c5ccc(F)cc5)c4=O)cc3F)ccnc2cc1-c1cccnc1 [Compound 620, N-[3-Fluoro-4-[(6-methyl-7-pyridin-3-yl-1,5-naphthyridin-4-yl)oxy]phenyl]-5-(4-fluorophenyl)-6-methyl-4-oxo-1-propan-2-ylpyridine-3-carboxamide] | > 300 | < 100 | < 100 | < 100 |  |  | 
Cc1cc(F)ccc1-c1c(C)ncc(C(=O)Nc2ccc(Oc3ccnc4cc(C(C)C)cnc34)c(F)c2)c1O [Compound 593, 5-(4-Fluoro-2-methylphenyl)-N-[3-fluoro-4-[(7-propan-2-yl-1,5-naphthyridin-4-yl)oxy]phenyl]-4-hydroxy-6-methylpyridine-3-carboxamide] | > 300 | 100 to 300 | 100 to 300 | < 100 |  |  | 
